# Publication PMC11269933, “MAPK/ERK-PK(Ser11) pathway regulates divergent thermal metabolism of two congeneric oyster species” (iScience, 2024)
# What was measured:
# [1] = molecular target: T1, CgPK (Magallana gigas, UniProt Z9A5V8HWU5); experiment: SPR (BIAcore T200, CM5 chip, anti-His capture), […] Langmuir fit; format: binding; conditions: PBS-P+ analyte buffer, running buffer HBS-EP+ pH 7.5, mimics dephosphorylation
# T1 construct: full-length CDS in pET-32a, 6xHis tags at N- and C-ends, expressed in E. coli; captured on CM5 chip by anti-His antibody
# [2] = molecular target: T1, CgPK; experiment: as above; format: binding; conditions: PBS-P+ analyte buffer, running buffer HBS-EP+ pH 7.5, recombinant from E. coli
Kd ([1]; ADP 1.25-10 uM) [nM],Kd ([2]; ADP 1.25-10 uM) [nM],Kd ([1]; PEP 100-1600 nM) [nM],Kd ([2]; PEP 100-1600 nM) [nM],SMILES
72.5,41.7,–,–,Nc1ncnc2c1ncn2[C@@H]1O[C@H](COP(=O)(O)OP(=O)(O)O)[C@@H](O)[C@H]1O [ADP]
–,–,93.4,9.75,C=C(OP(=O)(O)O)C(=O)O [PEP]
